Laboratory results as given in BindingDB's records for doi:10.1016/j.ejmech.2020.112034 (Shiv Nadar University, 2020).

What was measured:
Maltase-glucoamylase [1] = target: T1, Maltase-glucoamylase (Homo sapiens, UniProt O43451); assay: Non-competitive inhibition of alpha-glucosidase (unknown origin) using p-nitrophenyl-alpha-D glucopyranoside as substrate incubated for 30 mins by Lineweaver-Burk plot analysis
Maltase-glucoamylase [2] = target: T1, Maltase-glucoamylase; assay: Mixed type inhibition of alpha-glucosidase (unknown origin) using p-nitrophenyl-alpha-D glucopyranoside as substrate incubated for 30 mins by Lineweaver-Burk plot analysis

T1 sequence (O43451 whole entry): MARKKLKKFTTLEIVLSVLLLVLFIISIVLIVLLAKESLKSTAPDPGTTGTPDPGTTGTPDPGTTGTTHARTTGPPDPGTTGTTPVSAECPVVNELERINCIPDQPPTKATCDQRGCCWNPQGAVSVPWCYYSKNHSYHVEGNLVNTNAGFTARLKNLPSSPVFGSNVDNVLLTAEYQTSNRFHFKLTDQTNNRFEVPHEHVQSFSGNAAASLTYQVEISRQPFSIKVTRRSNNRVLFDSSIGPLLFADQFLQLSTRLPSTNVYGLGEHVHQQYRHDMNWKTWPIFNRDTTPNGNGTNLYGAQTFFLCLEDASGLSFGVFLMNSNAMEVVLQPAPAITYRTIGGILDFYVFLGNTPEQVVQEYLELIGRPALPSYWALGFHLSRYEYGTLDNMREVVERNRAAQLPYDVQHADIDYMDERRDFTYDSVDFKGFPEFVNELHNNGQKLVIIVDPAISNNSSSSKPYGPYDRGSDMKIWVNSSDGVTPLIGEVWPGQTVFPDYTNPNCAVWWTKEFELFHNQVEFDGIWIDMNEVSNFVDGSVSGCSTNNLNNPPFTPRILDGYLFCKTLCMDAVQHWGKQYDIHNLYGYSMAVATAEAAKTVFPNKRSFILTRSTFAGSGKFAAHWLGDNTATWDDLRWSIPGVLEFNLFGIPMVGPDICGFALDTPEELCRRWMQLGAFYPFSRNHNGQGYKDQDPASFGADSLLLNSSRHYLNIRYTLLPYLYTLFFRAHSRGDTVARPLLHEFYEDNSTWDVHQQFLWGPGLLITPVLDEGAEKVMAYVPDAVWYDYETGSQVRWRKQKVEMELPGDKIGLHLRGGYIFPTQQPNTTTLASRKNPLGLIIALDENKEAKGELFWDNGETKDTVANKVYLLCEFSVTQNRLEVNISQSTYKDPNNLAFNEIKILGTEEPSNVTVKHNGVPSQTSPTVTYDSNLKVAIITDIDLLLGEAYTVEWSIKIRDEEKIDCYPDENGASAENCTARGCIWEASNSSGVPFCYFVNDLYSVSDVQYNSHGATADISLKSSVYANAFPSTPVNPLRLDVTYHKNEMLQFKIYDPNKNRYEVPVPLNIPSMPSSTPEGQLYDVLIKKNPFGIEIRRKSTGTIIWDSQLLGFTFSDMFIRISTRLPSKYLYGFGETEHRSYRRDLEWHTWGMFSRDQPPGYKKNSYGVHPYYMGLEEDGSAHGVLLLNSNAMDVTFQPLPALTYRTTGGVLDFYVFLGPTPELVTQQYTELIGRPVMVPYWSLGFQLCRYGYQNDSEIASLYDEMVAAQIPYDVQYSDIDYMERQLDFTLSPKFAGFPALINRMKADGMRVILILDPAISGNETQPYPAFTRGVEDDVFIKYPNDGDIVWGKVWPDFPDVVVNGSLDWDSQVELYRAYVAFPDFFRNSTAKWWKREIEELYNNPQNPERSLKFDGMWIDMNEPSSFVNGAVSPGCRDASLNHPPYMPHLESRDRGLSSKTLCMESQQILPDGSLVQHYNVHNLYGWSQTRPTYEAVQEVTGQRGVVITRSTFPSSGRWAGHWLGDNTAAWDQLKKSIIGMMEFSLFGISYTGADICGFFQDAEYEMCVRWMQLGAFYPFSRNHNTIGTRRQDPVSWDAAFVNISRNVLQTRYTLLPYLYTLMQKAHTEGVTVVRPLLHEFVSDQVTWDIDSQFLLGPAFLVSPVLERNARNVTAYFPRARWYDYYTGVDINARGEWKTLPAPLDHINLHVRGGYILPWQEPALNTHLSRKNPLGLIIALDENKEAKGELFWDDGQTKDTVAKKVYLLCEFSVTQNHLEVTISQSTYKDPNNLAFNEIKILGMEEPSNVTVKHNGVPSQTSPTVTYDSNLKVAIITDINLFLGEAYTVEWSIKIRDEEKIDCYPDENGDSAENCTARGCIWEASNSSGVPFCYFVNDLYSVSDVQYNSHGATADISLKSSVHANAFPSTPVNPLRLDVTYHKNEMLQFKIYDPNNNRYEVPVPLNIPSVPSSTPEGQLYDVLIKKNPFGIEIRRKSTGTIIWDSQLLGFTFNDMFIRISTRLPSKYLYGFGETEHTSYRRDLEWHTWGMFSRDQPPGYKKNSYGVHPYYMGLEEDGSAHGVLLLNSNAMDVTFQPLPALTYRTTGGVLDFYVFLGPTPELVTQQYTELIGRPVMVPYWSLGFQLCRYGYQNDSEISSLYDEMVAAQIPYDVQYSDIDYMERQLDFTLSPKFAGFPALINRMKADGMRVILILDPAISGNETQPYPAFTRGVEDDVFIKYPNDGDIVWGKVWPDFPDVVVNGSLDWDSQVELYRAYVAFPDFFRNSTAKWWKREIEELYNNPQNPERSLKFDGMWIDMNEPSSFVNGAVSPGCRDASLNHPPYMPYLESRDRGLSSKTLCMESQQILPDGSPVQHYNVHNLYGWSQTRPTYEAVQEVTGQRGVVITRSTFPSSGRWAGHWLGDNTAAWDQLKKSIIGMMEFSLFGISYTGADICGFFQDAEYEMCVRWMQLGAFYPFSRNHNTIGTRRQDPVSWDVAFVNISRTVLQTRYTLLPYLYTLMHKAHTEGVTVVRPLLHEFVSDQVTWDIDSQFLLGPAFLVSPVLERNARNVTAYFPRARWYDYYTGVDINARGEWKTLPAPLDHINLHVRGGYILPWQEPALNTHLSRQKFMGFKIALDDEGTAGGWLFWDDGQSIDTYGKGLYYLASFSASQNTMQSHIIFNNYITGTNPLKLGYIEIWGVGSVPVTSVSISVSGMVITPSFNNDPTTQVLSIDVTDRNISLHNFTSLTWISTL

Structure (SMILES): CC(C)=CCc1cc(C(=O)/C=C/c2ccc(O)c(O)c2)c(O)cc1O [broussochalcone A]
- Ki (Maltase-glucoamylase [1]): 5.3 µM

Structure (SMILES): CC(C)=CCc1cc(-c2oc3cc(O)c(CC=C(C)C)c(O)c3c(=O)c2O)cc(O)c1O [CHEBI:66727]
- Ki (Maltase-glucoamylase [2]): 2.3 µM
